Data published in patent publication US12612424B2, “HPK1 inhibitors and uses thereof” (Regor Pharmaceuticals, Inc., priority 2019, dated 2026).

Biological target: T1, JAK3 (Homo sapiens, UniProt P52333)
T1 construct: purchased Thermo fisher PV3855
Experiment: JAK3 biochemical assay (ADP-GLO Kinase Assay)
Conditions: for IC50: B*: testing performed in a first testing facility, read-out: JAK3 IC50 (nM) Relative, B*; for JAKs/HPK1 IC50 Ratio, B*: ratio of JAK3 IC50 to HPK1 IC50, first testing facility
Method in brief: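 Luminescent ADP-Glo readout after a 60 min, 25 °C reaction of JAK3 (0.78 ng) on Poly(E4Y1) (0.2 μg/μL) at 4 μM ATP, Tris pH 7.5 buffer with MgCl2, BSA and DTT. Compounds tested 10 μM down to 0.508 nM in 3-fold steps; % inhibition normalised to DMSO and reference-compound controls, IC50 from three-parameter fit.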

T1 sequence (P52333 781-1124 limits assumed): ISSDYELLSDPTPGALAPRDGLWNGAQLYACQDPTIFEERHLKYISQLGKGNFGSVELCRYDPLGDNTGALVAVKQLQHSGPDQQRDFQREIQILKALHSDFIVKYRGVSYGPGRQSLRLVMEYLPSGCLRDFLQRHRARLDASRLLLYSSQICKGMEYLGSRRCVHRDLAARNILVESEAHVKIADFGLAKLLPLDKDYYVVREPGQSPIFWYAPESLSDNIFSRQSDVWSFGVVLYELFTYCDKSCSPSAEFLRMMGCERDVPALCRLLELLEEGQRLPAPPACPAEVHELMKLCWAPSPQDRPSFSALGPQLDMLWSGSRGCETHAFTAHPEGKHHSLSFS

COc1cc2c(cc1Nc1ncc(Cl)c(-n3cc(CC(=O)OC(C)C)c4ccccc43)n1)CN(C)CC2 [Example 130, Isopropyl 2-(1-(5-chloro-2-((6-methoxy-2-methyl-1,2,3,4-tetrahydroisoquinolin-7-yl)amino)pyrimidin-4-yl)-1H-indol-3-yl)acetate]
IC50: > 1000 nM
JAKs/HPK1 IC50 Ratio, B*: >243

COc1cc2c(cc1Nc1ncc(Cl)c(-n3cc(CC(N)=O)c4ccccc43)n1)CN(C)CC2 [Example 133]
IC50: > 1000 nM
JAKs/HPK1 IC50 Ratio, B*: 870

COc1cc2c(cc1Nc1ncc(Cl)c(-n3cc(CC#N)c4ccccc43)n1)CN(C)CC2 [Example 134]
IC50: 500 to 1000 nM
JAKs/HPK1 IC50 Ratio, B*: 243

COc1cc2c(cc1Nc1ncc(Cl)c(-n3cc(Cc4nn[nH]n4)c4ccccc43)n1)CN(C)CC2 [Example 135, N-(4-(3-((2H-tetrazol-5-yl)methyl)-1H-indol-1-yl)-5-chloropyrimidin-2-yl)-6-methoxy-2-methyl-1,2,3,4-tetrahydroisoquinolin-7-amine]
IC50: 500 to 1000 nM
JAKs/HPK1 IC50 Ratio, B*: 269

CNC(=O)Cc1cn(-c2nc(Nc3cc4c(cc3OC)CCN(C)C4)ncc2Cl)c2ccccc12 [Example 136]
IC50: 500 to 1000 nM
JAKs/HPK1 IC50 Ratio, B*: 438

COc1cc2c(cc1Nc1ncc(Cl)c(-n3cc(CC(=O)NCC#N)c4ccccc43)n1)CN(C)CC2 [Example 137]
IC50: > 1000 nM
JAKs/HPK1 IC50 Ratio, B*: 1304

COc1cc2c(cc1Nc1ncc(Cl)c(-n3cc(CC(=O)O)c4cc(F)ccc43)n1)CN(C)CC2 [Example 138]
IC50: 100 to 500 nM
JAKs/HPK1 IC50 Ratio, B*: 382

COc1cc2c(cc1Nc1ncc(Cl)c(-n3cc(CC(=O)O)c4ccc(F)cc43)n1)CN(C)CC2 [Example 139]
IC50: 100 to 500 nM
JAKs/HPK1 IC50 Ratio, B*: 520

COc1cc2c(cc1Nc1ncc(Cl)c(-n3cc(CC(=O)O)c4cc(F)c(F)cc43)n1)CN(C)CC2 [Example 140]
IC50: 500 to 1000 nM
JAKs/HPK1 IC50 Ratio, B*: 783

COc1cc2c(cc1Nc1ncc(Cl)c(-n3nc(CC(=O)O)c4ccccc43)n1)CN(C)CC2 [Example 141]
IC50: > 1000 nM
JAKs/HPK1 IC50 Ratio, B*: 541

COc1cc2c(cc1Nc1ncc(Cl)c(-n3cc(C(C)C(=O)O)c4ccccc43)n1)CN(C)CC2 (centres unmarked) [Example 142]
IC50: 500 to 1000 nM
JAKs/HPK1 IC50 Ratio, B*: 117

COC(=O)CC1(C)CN(c2nc(Nc3cc4c(cc3OC)CCN(C)C4)ncc2Cl)c2ccccc21 (centres unmarked) [Example 145]
IC50: > 1000 nM
JAKs/HPK1 IC50 Ratio, B*: 476

COc1cc2c(cc1Nc1ncc(Cl)c(N3CC(C)(CC(=O)O)c4ccccc43)n1)CN(C)CC2 (centres unmarked) [Example 146]
IC50: ≤ 100 nM
JAKs/HPK1 IC50 Ratio, B*: 90

CCOC(=O)CC1(C)CN(c2nc(Nc3cc4c(cc3OC)CCN(C)C4)ncc2Cl)c2ccccc21 (centres unmarked) [Example 149]
IC50: > 1000 nM
JAKs/HPK1 IC50 Ratio, B*: >944

COc1cc2c(cc1Nc1ncc(Cl)c(N3CC(C)(CC(=O)O)c4cc(F)ccc43)n1)CN(C)CC2 (centres unmarked) [Example 150, 2-(1-(5-Chloro-2-((6-methoxy-2-methyl-1,2,3,4-tetrahydroisoquinolin-7-yl)amino)pyrimidin-4-yl)-5-fluoro-3-methylindolin-3-yl)acetic acid]
IC50: 100 to 500 nM
JAKs/HPK1 IC50 Ratio, B*: 171

COc1cc2c(cc1Nc1ncc(Cl)c(N3CC(C)(CC(=O)O)c4ccc(F)cc43)n1)CN(C)CC2 (centres unmarked) [Example 151]
IC50: ≤ 100 nM
JAKs/HPK1 IC50 Ratio, B*: 187

COc1cc2c(cc1Nc1ncc(Cl)c(N3CC(C)(CC(=O)O)c4cc(F)c(F)cc43)n1)CN(C)CC2 (centres unmarked) [Example 154]
IC50: 100 to 500 nM
JAKs/HPK1 IC50 Ratio, B*: 430

CN1CCc2cc(F)c(Nc3ncc(Cl)c(N4CC(C)(CC(=O)O)c5ccccc54)n3)cc2C1 (centres unmarked) [Example 156]
IC50: ≤ 100 nM
JAKs/HPK1 IC50 Ratio, B*: 29

CCN1CCc2cc(OC)c(Nc3ncc(Cl)c(N4CC(C)(CC(=O)O)c5ccccc54)n3)cc2C1 (centres unmarked) [Example 157, 2-(1-(5-Chloro-2-((2-ethyl-6-methoxy-1,2,3,4-tetrahydroisoquinolin-7-yl)amino)pyrimidin-4-yl)-3-methylindolin-3-yl)acetic acid]
IC50: 100 to 500 nM
JAKs/HPK1 IC50 Ratio, B*: 176

COc1cc2c(cc1Nc1ncc(Cl)c(N3CC(C)(CC(=O)O)c4ccccc43)n1)CN(C(C)C)CC2 (centres unmarked) [Example 158, 2-(1-(5-Chloro-2-((2-isopropyl-6-methoxy-1,2,3,4-tetrahydroisoquinolin-7-yl)amino)pyrimidin-4-yl)-3-methylindolin-3-yl)acetic acid]
IC50: 100 to 500 nM
JAKs/HPK1 IC50 Ratio, B*: 192

COc1cc2c(cc1Nc1ncc(Cl)c(N3CC(C)(CC(=O)O)c4ccccc43)n1)CN(C)C2 (centres unmarked) [Example 159, 2-(1-(5-Chloro-2-((6-methoxy-2-methylisoindolin-5-yl)amino)pyrimidin-4-yl)-3-methylindolin-3-yl)acetic acid]
IC50: ≤ 100 nM
JAKs/HPK1 IC50 Ratio, B*: 71

COc1cc2c(cc1Nc1ncc(Cl)c(N3CC(C)(CC(=O)O)c4ccccc43)n1)CNCC2 (centres unmarked) [Example 160, 2-(1-(5-Chloro-2-((6-methoxy-1,2,3,4-tetrahydroisoquinolin-7-yl)amino)pyrimidin-4-yl)-3-methylindolin-3-yl)acetic acid methanesulfonic acid]
IC50: ≤ 100 nM
JAKs/HPK1 IC50 Ratio, B*: 97

COc1cc2c(cc1Nc1ncc(Cl)c(-c3cn(CC(=O)O)c4ccccc34)n1)CN(C)CC2 [Example 161]
IC50: 500 to 1000 nM
JAKs/HPK1 IC50 Ratio, B*: 510

COc1cc2c(cc1Nc1ncc(Cl)c(-c3nn(CC(=O)O)c4ccccc34)n1)CN(C)CC2 [Example 162, 2-(3-(5-Chloro-2-((6-methoxy-2-methyl-1,2,3,4-tetrahydroisoquinolin-7-yl)amino)pyrimidin-4-yl)-1H-indazol-1-yl)acetic acid]
IC50: > 1000 nM
JAKs/HPK1 IC50 Ratio, B*: 415

COc1cc2c(cc1Nc1nccc(N3CC(C(=O)O)c4ccccc43)n1)CN(C)CC2 (centres unmarked) [Example 163, 1-(2-((6-Methoxy-2-methyl-1,2,3,4-tetrahydroisoquinolin-7-yl)amino)pyrimidin-4-yl)indoline-3-carboxylic acid]
IC50: > 1000 nM
JAKs/HPK1 IC50 Ratio, B*: 456

COc1cc2c(cc1Nc1ncc3cc(C#N)n(-c4ccccc4)c3n1)CN(C)CC2 [Example 164, 2-((6-Methoxy-2-methyl-1,2,3,4-tetrahydroisoquinolin-7-yl)amino)-7-phenyl-7H-pyrrolo[2,3-d]pyrimidine-6-carbonitrile]
IC50: 500 to 1000 nM
JAKs/HPK1 IC50 Ratio, B*: 306

COc1cc2c(cc1Nc1ncc(Cl)c(N3CC(C(=O)O)C4(CCCCC4)C3)n1)CN(C)CC2 (centres unmarked) [Example 167, 2-(5-Chloro-2-((6-methoxy-2-methyl-1,2,3,4-tetrahydroisoquinolin-7-yl)amino)pyrimidin-4-yl)-2-azaspiro[4.5]decane-4-carboxylic acid]
IC50: > 1000 nM
JAKs/HPK1 IC50 Ratio, B*: 995

COc1cc2c(cc1Nc1ncc(Cl)c(N3CC(C(=O)O)C4(CCCC4)C3)n1)CN(C)CC2 (centres unmarked) [Example 169, 2-(5-Chloro-2-((6-methoxy-2-methyl-1,2,3,4-tetrahydroisoquinolin-7-yl)amino)pyrimidin-4-yl)-2-azaspiro[4.4]nonane-4-carboxylic acid]
IC50: > 1000 nM
JAKs/HPK1 IC50 Ratio, B*: 1482
